Results: patent US20260224566A1, “Obicetrapib and Ezetimibe Combination Treatment and Fixed Dose Pharmaceutical Compositions” (NewAmsterdam Pharma B.V., priority 2023, published 2026)

Columns and labels:
[1] = tested on: participants currently receiving high-intensity statin therapy; assay: ROSE2 Phase 2b clinical trial: safety and tolerability (adverse events, disposition); format: in vivo, human
Description: The safety and tolerability profile of obicetrapib 10 mg, both in combination with ezetimibe 10 mg and as monotherapy, will be assessed by clinical laboratory assessments (chemistry and hematology), vital signs, physical examinations, and the incidence of AEs.
An AE can therefore be any unfavorable and/or unintended sign (including an abnormal laboratory finding), symptom, or disease temporally associated with the use of an investigational medicinal product, whether or not related to the investigational medicinal product. All AEs, including observed or volunteered problems, complaints, or symptoms, are to be recorded on the appropriate eCRF.
AEs, which include clinical laboratory assessment variables, will be monitored and documented from the time of first dose of study treatment until completion of Visit 5. Participants should be instructed to report any AE that they experience to the Investigator, whether or not they think the event is due to study drug. Beginning at the date of the first dose of study treatment, Investigators should make an assessment for AEs at each visit and record the event on the appropriate AE eCRF.
The Investigator will assess the severity (intensity) of each AE as mild, moderate, or severe, and will also categorize each AE as to its potential relationship to study drug using the categories of yes or no.
An AE or adverse reaction is considered serious if, in the view of either the Investigator or Sponsor, it results in any of the following outcomes: • Death; • A life-threatening AE; Note: An AE or adverse reaction is considered “life-threatening” if, in view of either the Investigator or Sponsor, its occurrence places the participant at immediate risk of death. […] However, unexpected complications and/or prolongation of hospitalization that occur during elective surgery should be recorded as AEs and assessed for seriousness. Admission to the hospital for social or situational reasons (ie, no place to stay, live too far away to come for hospital visits, respite care) will not be considered inpatient hospitalizations. • A persistent or significant disability/incapacity or substantial disruption of the ability to conduct normal life functions; • A congenital anomaly/birth defect; or • An important medical event.
The Safety Population will include all participants who receive at least 1 dose of any study drug. Treatment classification will be based on the actual treatment received. The Safety Population will be the primary population used for the safety analyses.

CETP = target: T1, CETP (Homo sapiens, UniProt P11597); assay: Example 12: CETP activity and mass in ApoE*3-Leiden.CETP mice; format: in vivo, mouse
T1 construct: from tissue; host or cells: female ApoE*3-Leiden.CETP transgenic mice dosed in vivo
T1 sequence (P11597 18-493): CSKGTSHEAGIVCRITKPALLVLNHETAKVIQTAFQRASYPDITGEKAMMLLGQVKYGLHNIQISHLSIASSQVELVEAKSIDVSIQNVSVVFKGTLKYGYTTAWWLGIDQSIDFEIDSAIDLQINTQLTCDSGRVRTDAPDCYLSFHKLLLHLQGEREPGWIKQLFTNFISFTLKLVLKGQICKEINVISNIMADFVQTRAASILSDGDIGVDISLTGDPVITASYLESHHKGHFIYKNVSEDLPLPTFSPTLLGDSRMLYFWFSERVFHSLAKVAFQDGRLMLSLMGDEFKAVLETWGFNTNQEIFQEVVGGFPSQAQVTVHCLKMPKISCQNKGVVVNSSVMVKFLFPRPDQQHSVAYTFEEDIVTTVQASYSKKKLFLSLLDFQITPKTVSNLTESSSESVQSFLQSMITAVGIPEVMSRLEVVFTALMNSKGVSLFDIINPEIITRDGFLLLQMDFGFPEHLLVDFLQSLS
Description: To further elucidate the effects of the combination treatment, further studies were carried out using a standard human CETP transgenic knock-in mouse. As can be inferred from the experimental results reported herein, Obicetrapib alone and the combination with ezetimibe reduce non-HDL-C levels by increased VLDL lipolysis, increased VLDL clearance and elevated LDL receptor levels accompanied by an enhanced fecal bile acid and neutral sterol excretion.
The experimental protocol is illustrated in FIG. 71, with time (t) measured in weeks. Female ApoE*3-Leiden.CETP transgenic mice were fed a Western diet with 0.05% w/w cholesterol (equivalent to daily human intake) with (i) no drug (control), or the same diet containing (ii) obicetrapib alone (2 mg/kg/day), (iii) ezetimibe alone (1 mg/kg/day) or (iv) the combination of obicetrapib and ezetimibe. In the experiment, the effects of the treatments on, amongst other things, plasma blood lipids and fecal bile acids and sterols were determined.

[2] = tested on: patients with mild dyslipidemia; settings: cited from earlier work
Lp(a) = settings: TA-8995-06, 12 weeks of treatment; cited from earlier work
[3] = TA-8995-04, healthy volunteers; cited from earlier work
[4] = tested on: critical physiological systems; settings: rats, doses up to 300 mg/kg; cited from earlier work
[5] = All Randomized Participants, obicetrapib 10 mg (N = 39), obicetrapib 10 mg + ezetimibe 10 mg (N = 40)
[6] = Safety Population, 10 mg each drug
[7] = Safety Population, 10 mg each drug, last line so labelled (r41)

## CCOC(=O)N1c2ccc(C(F)(F)F)cc2[C@@H](N(Cc2cc(C(F)(F)F)cc(C(F)(F)F)c2)c2ncc(OCCCC(=O)O)cn2)C[C@H]1CC [obicetrapib, {4-[(2-{[3,5-bis(trifluoromethyl)benzyl] [(2R,4S)-1-(ethoxycarbonyl)-2-ethyl-6-(trifluoromethyl)-1,2,3,4-tetrahydroquinolin-4-yl]amino}pyrimidin-5-yl)oxy]butanoic acid}]
[1]; [5]
  Completed the study (with PK), (%): (94.9) %
  Completed treatment, (%): (92.3) %
  Discontinued study early, (%): (5.1) %
  Discontinued treatment, (%): (7.7) %
  Primary reason for early study discontinuation: LOST TO FOLLOW-UP, (%): (2.6) %
  Primary reason for early study discontinuation: OTHER, (%): (0.0) %
  Primary reason for early study discontinuation: WITHDRAWAL BY SUBJECT, (%): (0.0) %
  Primary reason for treatment discontinuation: NON-COMPLIANCE WITH STUDY DRUG, (%): (2.6) %
  Primary reason for treatment discontinuation: OTHER, (%): (0.0) %
  Primary reason for treatment discontinuation: WITHDRAWAL BY SUBJECT, (%): (0.0) %
[1]; [6]
  Any TEAEs by maximum severity: Mild, e: 20
  Any TEAEs by maximum severity: Moderate, (%): (7.7) %
  Any TEAEs leading to death, (%): (0.0) %
  Any TEAEs leading to death, e: 0
  Any serious TEAEs (TESAEs), (%): (5.1) %
  Any serious TEAEs (TESAEs), e: 2
  Any study drug-related TEAEs by maximum severity: Mild, e: 4
  Any study drug-related TEAEs by maximum severity: Moderate, (%): (5.1) %
  Any study drug-related TEAEs by maximum severity: Severe, (%): (5.1) %
  Any study drug-related TEAEs leading to discontinuation of study drug, (%): (5.1) %
  Any study drug-related TEAEs, (%): (2.6) %
  Any study drug-related TESAEs, (%): (2.6) %
  Any study drug-related TESAEs, e: 1
  Any treatment-emergent AEs (TEAEs), e: 20
[1]; Safety Population, 10 mg each drug, first line so labelled (r25)
  Any TEAEs leading to discontinuation of study drug, (%): (0.0) %
[1]; [7]
  Any TEAEs leading to discontinuation of study drug, (%): (0.0) %
  Any TEAEs leading to discontinuation of study drug, e: 0
CETP; data not shown
  cetp mass: does not affect
CETP; obicetrapib 2 mg/kg/day, ezetimibe 1 mg/kg/day in Western diet
  CETP activity, change: −99%
[2]; TA-8995-03, 10 mg daily dose
  HDL-C efflux capacity: significant increase
[2]; TA-8995-03, obicetrapib 10 mg
  additional reduction in LDL-C on top of atorvastatin 20 mg: 50.3%
Lp(a)
  Lp(a) levels: statistically significant reduction
[3]
  effect on the QTcF: no effect
[4]
  adverse effect on critical physiological systems: no adverse effect
